Laboratory results: patent publication US11834434B2, “Substituted 2-heteroaryloxypyridines and salts thereof and their use as herbicidal agents” (Bayer Aktiengesellschaft, priority 2018, dated 2023)

Columns and labels:
Format in all cases: in vivo
[1] = tested on: Amaranthus retroflexus (AMARE); experiment: Pre-emergence herbicidal action against Amaranthus retroflexus; settings: 1280 g/ha; scored visually after about 3 weeks vs untreated controls; 100% = plants have died, 0% = like control plants
Description: (§1) Seeds of mono- and dicotyledonous weed plants were placed in plastic pots in sandy loam soil (doubly sown with in each case one species of mono- or dicotyledonous weed plants per pot) and covered with soil. The compounds of the invention, formulated in the form of wettable powders (WP) or as emulsion concentrates (EC), were then applied onto the surface of the covering soil as aqueous suspension or emulsion with addition of 0.5% additive at a water application rate of 600 liters per hectare (converted). After the treatment, the pots were placed in a greenhouse and kept under good growth conditions for the test plants. After about 3 weeks, the effect of the preparations was scored visually in comparison with untreated controls as percentages. For example, 100% activity=the plants have died, 0% activity=like control plants. Tables C1 to C8 below show the effects of selected compounds of the general formula (I) according to Table 1 on various harmful plants and an application rate corresponding to 1280 g/ha, which were obtained by the experimental procedure mentioned above.

[2] = tested on: Stellaria media (STEME); experiment: Pre-emergence herbicidal action against Stellaria media; settings: 1280 g/ha; scored visually after about 3 weeks vs untreated controls; 100% = plants have died, 0% = like control plants
Description: as §1

[3] = tested on: Poa annua (POAAN); experiment: Pre-emergence herbicidal action against Poa annua; settings: 1280 g/ha; scored visually after about 3 weeks vs untreated controls; 100% = plants have died, 0% = like control plants
Description: as §1

[4] = tested on: Amaranthus retroflexus (AMARE); experiment: Post-emergence herbicidal action against Amaranthus retroflexus; settings: 1280 g/ha; rated visually after about 3 weeks vs untreated controls; 100% = plants have died, 0% = like control plants
Procedure: (§2) Seeds of mono- and dicotyledonous weed plants were placed in plastic pots in sandy loam soil (doubly sown with in each case one species of mono- or dicotyledonous weed plants per pot), covered with soil and cultivated in a greenhouse under controlled growth conditions. 2 to 3 weeks after sowing, the test plants were treated at the one-leaf stage. The compounds of the invention, formulated in the form of wettable powders (WP) or as emulsion concentrates (EC), were applied onto the green parts of the plants as aqueous suspension or emulsion with addition of 0.5% additive at a water application rate of 600 liters per hectare (converted). After the test plants had been kept in the greenhouse under optimum growth conditions for about 3 weeks, the activity of the preparations was rated visually in comparison to untreated controls. For example, 100% activity=the plants have died, 0% activity=like control plants. Tables B1 to B8 below show the effects of selected compounds of the general formula (I) according to Table 1 on various harmful plants and an application rate corresponding to 1280 g/ha, which were obtained by the experimental procedure mentioned above.

[5] = tested on: Setaria viridis (SETVI); experiment: Pre-emergence herbicidal action against Setaria viridis; settings: 1280 g/ha; scored visually after about 3 weeks vs untreated controls; 100% = plants have died, 0% = like control plants
Description: as §1

[6] = tested on: Matricaria inodora (MATIN); experiment: Pre-emergence herbicidal action against Matricaria inodora; settings: 1280 g/ha; scored visually after about 3 weeks vs untreated controls; 100% = plants have died, 0% = like control plants
Description: as §1

[7] = tested on: Abutilon theophrasti (ABUTH); experiment: Post-emergence herbicidal action against Abutilon theophrasti; settings: 1280 g/ha; rated visually after about 3 weeks vs untreated controls; 100% = plants have died, 0% = like control plants
Procedure: as §2

[8] = tested on: Stellaria media (STEME); experiment: Post-emergence herbicidal action against Stellaria media; settings: 1280 g/ha; rated visually after about 3 weeks vs untreated controls; 100% = plants have died, 0% = like control plants
Procedure: as §2

[9] = tested on: Poa annua (POAAN); experiment: Post-emergence herbicidal action against Poa annua; settings: 1280 g/ha; rated visually after about 3 weeks vs untreated controls; 100% = plants have died, 0% = like control plants
Procedure: as §2

[10] = tested on: Lolium rigidum (LOLRI); experiment: Pre-emergence herbicidal action against Lolium rigidum; settings: 1280 g/ha; scored visually after about 3 weeks vs untreated controls; 100% = plants have died, 0% = like control plants
Description: as §1

[11] = tested on: Echinochloa crus-galli (ECHCG); experiment: Pre-emergence herbicidal action against Echinochloa crus-galli; settings: 1280 g/ha; scored visually after about 3 weeks vs untreated controls; 100% = plants have died, 0% = like control plants
Description: as §1

[12] = tested on: Abutilon theophrasti (ABUTH); experiment: Pre-emergence herbicidal action against Abutilon theophrasti; settings: 1280 g/ha; scored visually after about 3 weeks vs untreated controls; 100% = plants have died, 0% = like control plants
Description: as §1

SMILES	Pre-emergence action against Amaranthus retroflexus (AMARE) [1]	Pre-emergence action against Stellaria media (STEME) [2]	Pre-emergence action against Poa annua (POAAN) [3]	Post-emergence action against Amaranthus retroflexus (AMARE) [4]	Pre-emergence action against Setaria viridis (SETVI) [5]	Pre-emergence action against Matricaria inodora (MATIN) [6]	Post-emergence action against Abutilon theophrasti (ABUTH) [7]	Post-emergence action against Stellaria media (STEME) [8]	Post-emergence action against Poa annua (POAAN) [9]	Pre-emergence action against Lolium rigidum (LOLRI) [10]	Pre-emergence action against Echinochloa crus-galli (ECHCG) [11]	Pre-emergence action against Abutilon theophrasti (ABUTH) [12]
Fc1ccc(Sc2cccnc2Oc2ncc(F)cn2)cc1 [Example I-154]	100%	100%	100%	100%	100%	100%						
Fc1cnc(Oc2ncccc2Sc2ccc(F)cc2F)nc1 [Example I-156]	100%	100%	100%	100%	90%	90%	100%	100%				
Cc1ccc(Cc2ccc(F)cc2F)c(Oc2ncc(Cl)cn2)n1 [Example I-400]	90%	100%	100%		100%	90%						
Cc1ccc(Cc2ccc(C)nc2Oc2ncc(Cl)cn2)cc1 [Example I-405]	100%	100%			100%							
COc1cc(Cc2ccc(C)nc2Oc2ncc(Cl)cn2)ccc1F [Example I-406]	90%	100%	100%	90%	100%	100%		90%	90%	90%		
Cc1ccc(Cc2ccccc2)c(Oc2ncc(F)cn2)n1 [Example I-430]	100%	100%	100%	90%	100%	100%		100%	90%	90%	100%	100%
Cc1ccc(Cc2ccc(C)nc2Oc2ncc(F)cn2)cc1 [Example I-438]		100%		90%		100%		90%				90%
COc1cc(Cc2ccc(C)nc2Oc2ncc(F)cn2)ccc1F [Example I-439]	90%	100%	100%		100%			90%			100%	100%
Cc1ccc(Cc2ccccc2)c(Oc2ncccn2)n1 [Example I-441]	100%	100%	100%	100%	100%	100%		100%		90%	100%	100%
Cc1ccc(Cc2ccc(C)nc2Oc2ncccn2)cc1 [Example I-449]		100%	90%									
COc1cc(Cc2ccc(C)nc2Oc2ncccn2)ccc1F [Example I-450]	90%	100%	100%	90%	100%	100%				90%	90%	100%
COc1cc(Cc2ccc(C)nc2Oc2ncc(C(F)(F)F)cn2)ccc1F [Example I-465]	100%	90%	100%	90%	90%					90%		
COc1cc(Oc2ccc(C)nc2Oc2ncc(Cl)cn2)ccc1F [Example I-509]	100%	100%	100%	100%	90%	100%				90%		100%
COc1cc(Oc2ccc(C)nc2Oc2ncc(F)cn2)ccc1F [Example I-520]	100%	100%	100%	100%	90%	100%	90%			100%		90%
Cc1ccc(Oc2ccccc2)c(Oc2ncccn2)n1 [Example I-522]	90%	100%	100%	100%	100%	90%		100%	90%	90%	100%	100%
Cc1ccc(Oc2ccc(Cl)cc2)c(Oc2ncccn2)n1 [Example I-526]	100%	100%	100%		100%	100%			100%		100%	100%
COc1cc(Oc2ccc(C)nc2Oc2ncccn2)ccc1F [Example I-531]	100%	100%	100%		100%	100%					90%	100%
Cc1ccc(Oc2ccccc2)c(Oc2ncc(C(F)(F)F)cn2)n1 [Example I-533, 2-[(6-Methyl-3-phenoxy-2-pyridyl)oxy]-5-(trifluoromethyl)pyrimidine]		100%	90%		90%				100%		90%	
Cc1ccc(Oc2ccc(Cl)cc2)c(Oc2ncc(C(F)(F)F)cn2)n1 [Example I-534]	90%	100%			90%	90%				100%		
